Results on 2 compounds are retold here after patent US20190336484A1, “IL-8 INHIBITORS FOR USE IN THE TREATMENT OF SOME UROLOGICAL DISORDERS” (DOMPÉ FARMACEUTICI S.P.A., priority 2017, published 2019).

Structures are written as SMILES.

One data set has as its system CXCR1/CXCR2. Conditions: Bertini R. et al, Br J Pharmacol 2012; cited from earlier work.
Data set [1] relates to testosterone-induced prostate hypertrophy (TBPH). The experiment in a line: Testosterone-induced prostate hypertrophy (TBPH), cystometry / urodynamic parameters. Conditions: 20 mg/kg oral twice daily, 5 days a week, 4 weeks. It counts as in vivo, Sprague-Dawley male rats. An excerpt: The study was undertaken to test the effects of chronic oral administration of Compound 1 in rats with dysfunctional bladders in an experimental model of TBPH involving an estrogen-associated inflammation (Tatemichi et al, J Urol 2006, 176:1236-1241).
A total 26 Sprague-Dawley male rats (250-270 g) were used for the study, according to the regulations of the Animal Ethics Committee (IACUC n.631). The rats were maintained under standard laboratory conditions at 12:12 light/dark cycle with free access to food pellets and tap water.
BPH was induced treating animals once a week for 4 weeks with intramuscular hormones corresponding to testosterone enanthate (Geymonat, 12.5 mg)+17β-estradiol-velerate (SIGMA, 0.125 mg) in sesame oil. […]
The conscious rats were placed in metabolic cages without restraint and the bladder catheters were connected via a T-tube to a pressure transducer (P23 DC; Statham Instruments Inc., Oxnard, Calif., USA) and a microinjection pump (CMA 100; Carnegie Medicine Aft Solna, Sweden). Micturition volumes were recorded with a fluid collector connected to a force displacement transducer (FT 03 D, Grass Instrument Co., Quincy, Mass., USA). […] Pressures and micturition volumes were recorded continuously with Acq Knowledge 3.8.1 software and a MP100 data acquisition system (Biopac Syst. Inc. Santa Barbara, Calif.) connected to a Grass polygraph (Model 7E, Grass Instrument Co).

A short description of another data set: pharmacokinetic profile. The following applies: in vivo. An excerpt:
In fact, as it will be illustrated in the Experimental section, Compd.

Data set [2] has as its system experimental autoimmune chronic prostatitis (EACP). The experiment in a line: Experimental autoimmune chronic prostatitis (EACP), mechanical allodynia by Von Frey test. It counts as in vivo, Lewis male rats. The following applies: 20 mg/kg oral twice daily. An excerpt: The experimental autoimmune chronic prostatitis (EACP) can be easily generated in rats by specific immunization with syngeneic rat prostate homogenate. As a consequence of the strong inflammatory reaction, pelvic pain is generated, as already described (Zhang et al, Scand J Immunol 2011, 73:546-553; Zhang et al, Prostate 2012, 72:90-99; Wang et al, Int Urol Nephrol 2015, 47:307-316; Rudick et al, Am J Physiol Regul Integr Comp Physiol 2008, 294:R1268-1275).
A total of 36 Lewis male rats (250-270 g) from Charles River Italy were used for the study, according to the regulations of the Animal Ethics Committee (IACUC n.631). The rats were maintained under standard laboratory conditions at 12:12 light/dark cycle with free access to food pellets and tap water.
Each animal was initially immunized with 2 mg of syngeneic prostate protein, diluted in saline, emulsified with complete Freund adjuvant containing 2 mg/ml of H37a mycobacterium (BD). Emulsion was produced by vortexing the mix for 15 min or till obtaining appropriate viscosity. A total volume of 0.2 mL in two sites was injected into each anesthetized rat at the dorsal tail base. A booster immunization was then repeated 13 days after the first injection. […]
Effect of pelvic pain was evaluated 16 and 26 days after immunization by testing mechanical allodynia with Von Frey test. […]

The next data set has as its system RWPE-1 cells. As to the kind of experiment: in vitro inflammatory model of prostatitis: ROS/RNS production (DCFH-DA assay) in RWPE-1 cells exposed to conditioned medium from activated U-937. It counts as cell-based, human. The following applies: then CM from activated U-937, measured after 3 hours. An excerpt: Characterization of Compound 1 on an in vitro inflammatory model of prostatitis.
In the aim of characterizing the Compound 1 on an in vitro inflammatory prostatitis model, human prostatic normal cells RWPE-1 (ATCC, lot number 61840713) are put in communication with activated macrophages; thus it induces an inflammatory micro-environment that enhances the production of reactive oxygen and nitrogen species (Debelec-Butuner et al, Mol. Carcinogen. 2014, 53:85-97).
Human U-937 monocytes (ATCC, lot number 61795631) seeded at 50.000 cells/ml were differentiated with phorbol acetate ([…]) for 16 h. In order to stimulate cytokines production, lipopolysaccharide (LPS) was added (10 ng/ml for 24 h) and the conditioned medium (CM) collected.
After 24 h in culture, RWPE-1 cells were treated with Compound 1 (0.1, 1 and 10 μM) and then exposed to CM from activated U-937. After 3 hours, reactive oxygen species (ROS) and Reactive Nitrogen species (RNS) were quantitatively measured by means of 2′,7′-dichlorodihydrofluorescein diacetate (DCFH-DA) assay. […] DCF is a highly fluorescent compound which can be detected by fluorescence spectroscopy with maximum excitation and emission spectra of 495 nm and 529 nm respectively (Games et al, J. Biochem. Biophys. Methods 2005, 65:45-80).

`C[C@@H](C(=O)NS(C)(=O)=O)c1ccc(OS(=O)(=O)C(F)(F)F)cc1.[Na]` [Compd.2, sodium salt of R(−)-2-[(4′-trifluoromethanesulfonyloxy)phenyl]-N-methanesulfonyl propionamide]: the CXCR1/CXCR2 inhibitor character entry with CXCR1/CXCR2 was “potent and selective dual CXCR1/CXCR2 non-competitive allosteric inhibitor”.
Turning to `C[C@H](C(=O)[O-])c1ccc(Nc2nc(C(F)(F)F)cs2)cc1.[Na+]` [Compound 1, sodium salt of (2S)-2-(4-{[4-(trifluoromethyl)-1,3-thiazol-2-yl]amino}phenyl) propanoic acid], the “post void residual volume (PVR)” value in data set [1] (FIG. 4) was “numerical trend in reducing”. Besides, the “area under pressure/time curve (AUC, detrusor over activity)” value in data set [1] (FIG. 5) was “numerical trend in reducing”. In “pharmacokinetic profile”, the “absorption (plasma)” value is “rapid absorption”. For the same compound, the “mechanical hypersensitivity and allodynia (abdomen/pelvic withdrawal threshold, Von Frey)” value in data set [2] (day 16 and 26 after immunization, compared to vehicle) is “partly decreased the mechanical hypersensitivity and allodynia reaching the statistical significance at day 26”. In addition, in data set [2] (vehicle group stimulated by 19 g, FIG. 3), the “applied force eliciting response in Von Frey test, fold higher” value was 2,8 fold. Further, the “total ROS and RNS production induced by conditioned medium (CM)” value is given as “completely reverted the CM effect” in the data set with RWPE-1 cells (Compound 1 at 1 μM) and “more modest effect in comparison to the concentration 1 μM” in the data set on RWPE-1 cells (Compound 1 at 10 μM).
